According to ChEMBL document CHEMBL1135216, “New 2-(1-adamantylcarbonyl)pyridine and 1-acetyladamantane thiosemicarbazones-thiocarbonohydrazones: cell growth inhibitory, antiviral and antimicrobial activity evaluation” (Bioorg Med Chem Lett, 2002):
Values after ≈ are worked out from the molar mass of the structure shown.

What was measured:
HeLa [1] = experiment: Tested for cytotoxic activity in human epithelial cell line (HeLa); type: functional
Vero [2] = experiment: Tested for antiviral activity against parainfluenza virus in african green monkey kidney cell (Vero); type: functional; details: Chlorocebus sabaeus
MOLT-4 [3] = experiment: Tested for the inhibitory concentration against cell growth of Tcell leukemic cell line MOLT-4 using MTT assay; type: functional; details: Homo sapiens
E6SM [4] = experiment: Tested for antiviral activity against herpes simplex virus type 1(KOS) in E6SM cell line(human embryonic skin-muscle fibroblasts); type: functional
K562 [5] = experiment: Tested for the concentration required to reduce the viability of leukemia cells by 50% against cell growth of K562 chronic myeloid leukemia using MTT assay; type: functional; details: Homo sapiens, read-out: LC50 (the source's name)
E6SM [6] = experiment: Tested for cytotoxic activity in human embryonic skin muscle fibroblast (E6SM); type: functional; details: Muscle tissue
HEL [7] = experiment: Tested for antiviral activity against thymidine kinase wild type Varicella zoster virus in human embryonic lung fibroblast; type: functional
Escherichia coli = experiment: Tested for the antimicrobial activity against Escherichia coli ATCC 25922; type: functional
Vero [8] = experiment: Tested for antiviral activity against Reo-1 virus in African green monkey kidney cell (Vero); type: functional; details: Chlorocebus sabaeus
Vero [9] = experiment: Tested for antiviral activity against Sindbis virus in African green monkey kidney cell (Vero); type: functional; details: Chlorocebus sabaeus
HEL [10] = experiment: Tested for antiviral activity against human cytomegalovirus (AD-169) in human embryonic lung fibroblasts; type: functional
Klebsiella pneumoniae = experiment: Tested for the antimicrobial activity against Klebsiella pneumoniae ATCC 13883; type: functional
E6SM [11] = experiment: Antiviral activity against thymidine kinase-deficient (TK-HSV-1)virus in E6SM cell line(human embryonic skin-muscle fibroblasts); type: functional
Staphylococcus hominis = experiment: Tested for the antimicrobial activity against Staphylococcus hominis ATCC 27844; type: functional
RPMI-8226 [12] = experiment: Tested for the concentration required to reduce the viability of leukemia cells by 50% against cell growth of RPMI8226 multiple myeloma using MTT assay; type: functional; details: Homo sapiens, read-out: LC50 (the source's name)
CCRF-CEM [13] = experiment: Tested for the concentration required to reduce the viability of leukemia cells by 50% against cell growth of T cell leukemia cell line CCRF-CEM using MTT assay; type: functional; details: Homo sapiens
HEL [14] = experiment: Tested for cytotoxic activity in human embryonic lung fibroblast (HEL); type: functional
HuT78 [15] = experiment: Tested for the concentration required to reduce the viability of leukemia cells by 50% against cell growth of HuT78 T lymphoma using MTT assay; type: functional; details: Homo sapiens
MT4 [16] = experiment: Tested for effective concentration required to protect MT-4 cells against the cytopathicity of HIV-2(ROD); type: functional, cell-based; details: Homo sapiens
Vero [17] = experiment: Tested for antiviral activity against coxsackie B-4 virus in African green monkey kidney cell (Vero); type: functional; details: Chlorocebus sabaeus
RPMI-8226 [18] = experiment: Tested for the inhibitory concentration against cell growth of […] multiple myeloma using MTT assay; type: functional; details: Homo sapiens
HeLa [19] = experiment: Tested for antiviral activity against coxsackie-B4 virus in human epithelial cell line; type: functional
HL-60 [20] = experiment: Tested for the inhibitory concentration against cell growth of HL60 acute myeloid leukemia using MTT assay; type: functional; details: Homo sapiens
CCRF-CEM [21] = experiment: Tested for the inhibitory concentration against cell growth of human leukemic cell line CCRF-CEM; type: functional
HEL [22] = experiment: Tested for antiviral activity against thymidine kinase deficient Varicella zoster virus in human embryonic lung fibroblasts; type: functional
K562 [23] = experiment: Tested for the inhibitory concentration against cell growth of K562 chronic myeloid leukemia using MTT assay; type: functional; details: Homo sapiens
HL-60 [24] = experiment: Tested for the concentration required to reduce the viability of leukemia cells by 50% against cell growth of HL60 acute myeloid leukemia using MTT assay; type: functional; details: Homo sapiens, read-out: LC50 (the source's name)
HuT78 [25] = experiment: Tested for the inhibitory concentration against cell growth of human leukemic cell line HuT78; type: functional
MT4 [26] = experiment: Tested for effective concentration required to protect MT-4 cells against the cytopathicity of HIV-1(IIIB); type: functional; details: Homo sapiens, read-out: LC50 (the source's name)
MOLT-4 [27] = experiment: Tested for the inhibitory concentration against cell growth of human leukemic cell line MOLT-4; type: functional
E6SM [28] = experiment: Tested for antiviral activity against VSV-virus in human embryonic skin muscle fibroblasts; type: functional; details: Muscle tissue
Vero [29] = experiment: Tested for antiviral activity against Punta toro virus in African green monkey kidney cell (Vero); type: functional; details: Chlorocebus sabaeus
E6SM [30] = experiment: The compound was tested for antiviral activity against VSV-virus in human epithelial cells; type: functional
MT4 [31] = experiment: Tested for cytotoxic concentration required to reduce the viability of MT-4 cells by 50%; type: functional, cell-based; details: Homo sapiens, read-out: EC50 (the source's name)
HuT78 [32] = experiment: Tested for the inhibitory concentration against cell growth of HuT78 T lymphoma using MTT assay; type: functional; details: Homo sapiens
K562 [33] = experiment: Tested for the inhibitory concentration against cell growth of human leukemic cell line K562; type: functional
E6SM [34] = experiment: Tested for antiviral activity against vaccinia virus in human embryonic skin muscle fibroblast; type: functional; details: Muscle tissue
Vero [35] = experiment: Tested for cytotoxic activity in African green monkey kidney cells (Vero); type: functional; details: Chlorocebus sabaeus
MOLT-4 [36] = experiment: Tested for the concentration required to reduce the viability of leukemia cells by 50% against cell growth of T cell leukemia cell line MOLT-4 using MTT assay; type: functional; details: Homo sapiens
[37] = system: Staphylococcus epidermidis; experiment: Tested for the antimicrobial activity against Staphylococcus epidermidis ATCC 12228; type: functional
HL-60 [38] = experiment: Tested for the inhibitory concentration against cell growth of human leukemic cell line HL60; type: functional
Staphylococcus aureus = experiment: Tested for the antimicrobial activity against Staphylococcus aureus ATCC 6538; type: functional
CCRF-CEM [39] = experiment: Tested for the inhibitory concentration against cell growth of Tcell leukemic cell line CCRF-CEM using MTT assay; type: functional; details: Homo sapiens
E6SM [40] = experiment: Tested for antiviral activity against thymidine kinase-deficient (TK-HSV-2G) virus in E6SM cell line(human embryonic skin-muscle fibroblasts)
RPMI-8226 [41] = experiment: Tested for the inhibitory concentration against cell growth of human leukemic cell line RPMI8226; type: functional

## S=C(N/N=C(/c1ccccn1)C12CC3CC(CC(C3)C1)C2)NNC(=S)c1ccc(Cl)cc1Cl
HeLa [1]
  MCC: 16 µg/mL
Vero [2]
  MIC: > 3.2 µg/mL
MOLT-4 [3]
  TGI: 100 µM
E6SM [4]
  MIC: > 16 µg/mL
K562 [5]
  CC50: 100 µM
E6SM [6]
  MCC: 80 µg/mL
HEL [7]
  MIC: > 2 µg/mL
Escherichia coli
  MIC: > 1880 µg/mL
Vero [8]
  MIC: > 3.2 µg/mL
Vero [9]
  MIC: > 3.2 µg/mL
HEL [10]
  MIC: > 2 µg/mL
Klebsiella pneumoniae
  MIC: > 1880 µg/mL
E6SM [11]
  MIC: > 16 µg/mL
Staphylococcus hominis
  MIC: 117 µg/mL (≈ 226 µM)
RPMI-8226 [12]
  CC50: 100 µM
CCRF-CEM [13]
  TGI: 100 µM
HEL [14]
  MCC: 5 µg/mL
HuT78 [15]
  TGI: 100 µM
MT4 [16]
  EC50: > 3 µM
Vero [17]
  MIC: > 3.2 µg/mL
RPMI-8226 [18]
  TGI: 29.5 µM
HeLa [19]
  MIC: > 3.2 µg/mL
HL-60 [20]
  TGI: 7 µM
CCRF-CEM [21]
  GI50: 66.3 µM
HEL [22]
  MIC: > 2 µg/mL
K562 [23]
  TGI: 100 µM
HL-60 [24]
  CC50: 31.9 µM
HuT78 [25]
  GI50: 23 µM
MT4 [26]
  EC50: > 3 µM
MOLT-4 [27]
  GI50: 31.4 µM
E6SM [28]
  MIC: > 16 µg/mL
Vero [29]
  MIC: > 3.2 µg/mL
E6SM [30]
  MIC: > 16 µg/mL
MT4 [31]
  CC50: 2.6 µM
HuT78 [32]
  TGI: 81 µM
K562 [33]
  GI50: 100 µM
E6SM [34]
  MIC: > 16 µg/mL
Vero [35]
  MCC: 16 µg/mL
MOLT-4 [36]
  TGI: 100 µM
[37]
  MIC: 117 µg/mL (≈ 226 µM)
HL-60 [38]
  GI50: 3.6 µM
Staphylococcus aureus
  MIC: 117 µg/mL (≈ 226 µM)
CCRF-CEM [39]
  TGI: 100 µM
E6SM [40]
  MIC: > 3.2 µg/mL
RPMI-8226 [41]
  GI50: 4.6 µM

## C/C(=N/N=C(\N)S)C12CC3CC(CC(C3)C1)C2
HeLa [1]
  MCC: 400 µg/mL
Vero [2]
  MIC: > 80 µg/mL
MOLT-4 [3]
  TGI: 9.3 µM
E6SM [4]
  MIC: 240 µg/mL (≈ 955 µM)
K562 [5]
  CC50: 62.6 µM
E6SM [6]
  MCC: > 400 µg/mL
HEL [7]
  MIC: > 2 µg/mL
Escherichia coli
  MIC: > 3980 µg/mL
Vero [8]
  MIC: > 80 µg/mL
Vero [9]
  MIC: > 80 µg/mL
HEL [10]
  MIC: > 2 µg/mL
Klebsiella pneumoniae
  MIC: > 3980 µg/mL
E6SM [11]
  MIC: > 400 µg/mL
Staphylococcus hominis
  MIC: > 3980 µg/mL
RPMI-8226 [12]
  CC50: 69.2 µM
CCRF-CEM [13]
  TGI: 86.7 µM
HEL [14]
  MCC: 5 µg/mL
HuT78 [15]
  TGI: 83.1 µM
MT4 [16]
  EC50: > 8 µM
Vero [17]
  MIC: > 80 µg/mL
RPMI-8226 [18]
  TGI: 33.3 µM
HeLa [19]
  MIC: > 80 µg/mL
HL-60 [20]
  TGI: 24.1 µM
CCRF-CEM [21]
  GI50: 23.6 µM
HEL [22]
  MIC: > 2 µg/mL
K562 [23]
  TGI: 10.4 µM
HL-60 [24]
  CC50: 63.6 µM
HuT78 [25]
  GI50: 2.3 µM
MT4 [26]
  EC50: > 8 µM
MOLT-4 [27]
  GI50: 2.3 µM
E6SM [28]
  MIC: > 400 µg/mL
Vero [29]
  MIC: > 80 µg/mL
E6SM [30]
  MIC: 240 µg/mL (≈ 955 µM)
MT4 [31]
  CC50: 7.5 µM
HuT78 [32]
  TGI: 29.1 µM
K562 [33]
  GI50: 2.8 µM
E6SM [34]
  MIC: > 400 µg/mL
Vero [35]
  MCC: 400 µg/mL
MOLT-4 [36]
  TGI: 59.4 µM
[37]
  MIC: > 3980 µg/mL
HL-60 [38]
  GI50: 5.2 µM
Staphylococcus aureus
  MIC: > 3980 µg/mL
CCRF-CEM [39]
  TGI: 55.2 µM
E6SM [40]
  MIC: > 80 µg/mL
RPMI-8226 [41]
  GI50: 7.1 µM
